Reference: patent US20230391760A1, “HETEROCYCLIC GLP-1 AGONISTS” (Gasherbrum Bio, Inc., priority 2020, published 2023)

These compounds were tested against GLP-1 Receptor (Homo sapiens, UniProt P43220) (assay: GLP-1R agonist cAMP stimulation assay (HEK293/GLP1R/CRE-LUC cells, cAMP dynamic 2 Kit)). Details: HEK293/CRE-Luc cell line stably expressing the GLP-1 Receptor, 30 min at 37° C.
Type: cell-based
Summary of the method: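 cAMP measured by HTRF competition (d2-labelled cAMP with cryptate antibody, 1 h, room temperature, protected from light). Before that, GLP1R/CRE-Luc HEK293 cells (1000/well) were exposed for 30 min at 37 °C to half-log compound dilutions in DPBS containing IBMX 0.5 mM and BSA 0.1%.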

GLP-1 Receptor, sequence (P43220 24-463, species assumed): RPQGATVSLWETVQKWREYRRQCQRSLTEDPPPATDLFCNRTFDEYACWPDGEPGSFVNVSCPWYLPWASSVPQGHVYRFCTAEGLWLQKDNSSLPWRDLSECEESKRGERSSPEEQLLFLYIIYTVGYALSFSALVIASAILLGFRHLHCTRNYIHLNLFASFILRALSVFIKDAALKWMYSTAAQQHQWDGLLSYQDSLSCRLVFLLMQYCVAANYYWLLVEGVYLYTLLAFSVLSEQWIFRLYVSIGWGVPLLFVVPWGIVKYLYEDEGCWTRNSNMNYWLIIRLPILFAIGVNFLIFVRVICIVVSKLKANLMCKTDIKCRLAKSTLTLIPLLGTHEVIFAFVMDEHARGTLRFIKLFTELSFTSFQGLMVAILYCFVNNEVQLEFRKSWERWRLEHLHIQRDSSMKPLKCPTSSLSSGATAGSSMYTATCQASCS

Q: Which EC50 does the source give for `C[C@H]1CN(c2nc(OCc3ccc(Cl)cc3F)ccc2F)CCN1Cc1nc2cc(-c3nnc(C(F)(F)F)[nH]3)nnc2n1C[C@@H]1CCO1` [Compound 514a, (2S)-4-{6-[(4-chloro-2-fluorophenyl)methoxy]-3-fluoropyridin-2-yl}-2-methyl-1-[(7-{[(2S)-oxetan-2-yl]methyl}-3-[5-(trifluoromethyl)-4H-1,2,4-triazol-3-yl]-7H-imidazo[4,5-c]pyridazin-6-yl)methyl]piperazine] here?
A: 0.071 nM

Q: For `CC1(c2ccc(Cl)cc2F)Oc2cccc(C3CCN(Cc4nc5cc(-c6noc(=O)[nH]6)cnc5n4C[C@H]4CCCO4)CC3)c2O1` (stereo partly drawn) [Compound 399a, 3-[2-({4-[2-(4-chloro-2-fluorophenyl)-2-methyl-2H-1,3-benzodioxol-4-yl]piperidin-1-yl}methyl)-3-{[(2R)-oxolan-2-yl]methyl}-3H-imidazo[4,5-b]pyridin-6-yl]-4,5-dihydro-1,2,4-oxadiazol-5-one], which EC50 is on record?
A: 17 nM

Q: Which EC50 does the source give for `O=C(O)c1ccc2c(c1)nc(CN1CCC(c3cccc(OCc4ccc(Cl)cc4F)n3)CC1)n2C[C@@H]1CCO1` [Compound 213a, 2-[(4-{6-[(4-chloro-2-fluorophenyl)methoxy]pyridin-2-yl}piperidin-1-yl)methyl]-1-{[(2S)-oxetan-2-yl]methyl}-1H-1,3-benzodiazole-5-carboxylic acid] here?
A: 0.83 nM

Q: Which EC50 does the source give for `Fc1cc(Cl)ccc1[C@H]1COc2cccc(C3CCN(Cc4nc5cc(-c6nnc(C(F)(F)F)[nH]6)nnc5n4C[C@@H]4CCO4)CC3)c2O1` [Compound 523a, 4-[(3S)-3-(4-chloro-2-fluorophenyl)-2,3-dihydro-1,4-benzodioxin-5-yl]-1-[(7-{[(2S)-oxetan-2-yl]methyl}-3-[5-(trifluoromethyl)-4H-1,2,4-triazol-3-yl]-7H-imidazo[4,5-c]pyridazin-6-yl)methyl]piperidine] here?
A: 0.14 nM

Q: How did the EC50 turn out when `CC1(c2ccc(Cl)cc2F)Oc2cccc(C3CCN(Cc4nc5cc(-c6n[nH]c(=O)[nH]6)ccc5n4C[C@@H]4CCO4)CC3)c2O1` (stereo partly drawn) [Compound 355a, 3-[2-({4-[2-(4-chloro-2-fluorophenyl)-2-methyl-2H-1,3-benzodioxol-4-yl]piperidin-1-yl}methyl)-1-{[(2S)-oxetan-2-yl]methyl}-1H-1,3-benzodiazol-5-yl]-4,5-dihydro-1H-1,2,4-triazol-5-one] was run?
A: 7 nM

Q: For `CC1(c2ccc(Cl)cn2)Oc2cccc(C3CCN(Cc4nc5cc(-c6n[nH]c(C(F)(F)F)n6)cnc5n4C[C@@H]4CCO4)CC3)c2O1` (mixture of isomers) [Compound 333a, 5-chloro-2-(2-methyl-4-{1-[(3-{[(2S)-oxetan-2-yl]methyl}-6-[5-(trifluoromethyl)-4H-1,2,4-triazol-3-yl]-3H-imidazo[4,5-b]pyridin-2-yl)methyl]piperidin-4-yl}-2H-1,3-benzodioxol-2-yl)pyridine], which EC50 is on record?
A: 0.03 nM

Q: With `CC1(c2ccc(Cl)cc2F)Oc2cccc(C3CCN(Cc4nc5cc(-c6nnc(C(F)(F)F)[nH]6)ccc5n4C[C@@H]4CCO4)CC3)c2O1` (single isomer, unassigned) [Compound 229c] as the compound, how does the EC50 read?
A: 0.04 nM

Q: Which EC50 does the source give for `O=C(Nc1ccc2c(c1)nc(CN1CCC(c3cccc(OCc4ccc(Cl)cc4F)n3)CC1)n2C[C@@H]1CCO1)c1ccccn1` [Compound 170a, N-{2-[(4-{6-[(4-chloro-2-fluorophenyl)methoxy]pyridin-2-yl}piperidin-1-yl)methyl]-1-{[(2S)-oxetan-2-yl]methyl}-1H-1,3-benzodiazol-5-yl}pyridine-2-carboxamide] here?
A: 0.14 nM

Q: With `O=C(Nc1ccc2c(c1)nc(CN1CCC(c3cccc(OCc4ccc(Cl)cc4F)n3)CC1)n2C[C@@H]1CCO1)C1CC1` [Compound 103a, (S)—N-(2-((4-(6-((4-chloro-2-fluorobenzyl)oxy)pyridin-2-yl)piperidin-1-yl)methyl)-1-(oxetan-2-ylmethyl)-1H-benzo[d]imidazol-5-yl)cyclopropanecarboxamide] as the compound, how does the EC50 read?
A: 0.309 nM

Q: With `C[C@H]1CN(c2ncc(F)c(OCc3ccc(Cl)cc3F)n2)CCN1Cc1nc2cc(-c3nnc(C(F)(F)F)[nH]3)cnc2n1C[C@@H]1CCO1` [Compound 527a, 4-[(4-chloro-2-fluorophenyl)methoxy]-5-fluoro-2-[(3S)-3-methyl-4-[(3-{[(2S)-oxetan-2-yl]methyl}-6-[5-(trifluoromethyl)-4H-1,2,4-triazol-3-yl]-3H-imidazo[4,5-b]pyridin-2-yl)methyl]piperazin-1-yl]pyrimidine] as the compound, how does the EC50 read?
A: 0.033 nM

Q: `Fc1cc(Cl)ccc1COc1cccc(C2CCN(Cc3nc4cc(-c5nnc[nH]5)ncc4n3C[C@@H]3CCO3)CC2)n1` [Compound 436a, 2-[(4-chloro-2-fluorophenyl)methoxy]-6-{1-[(3-{[(2S)-oxetan-2-yl]methyl}-6-(4H-1,2,4-triazol-3-yl)-3H-imidazo[4,5-c]pyridin-2-yl)methyl]piperidin-4-yl}pyridine] was tested. Which EC50 did it give?
A: 0.91 nM

Q: For `CNC(=O)Nc1ccc2c(c1)nc(CN1CCC(c3cccc(OCc4ccc(Cl)cc4F)n3)CC1)n2C[C@@H]1CCO1` [Compound 145a, 1-{2-[(4-{6-[(4-chloro-2-fluorophenyl)methoxy]pyridin-2-yl}piperidin-1-yl)methyl]-1-{[(2S)-oxetan-2-yl]methyl}-1H-1,3-benzodiazol-5-yl}-3-methylurea], which EC50 is on record?
A: 0.16 nM

Q: How did the EC50 turn out when `C[C@H]1CN(c2ccc(F)c(OCc3ccc(C#N)cc3F)c2)CCN1Cc1nc2cc(-c3nnc(C(F)(F)F)[nH]3)ncc2n1C[C@@H]1CCO1` [Compound 506a, 3-fluoro-4-({2-fluoro-5-[(3S)-3-methyl-4-[(3-{[(2S)-oxetan-2-yl]methyl}-6-[5-(trifluoromethyl)-4H-1,2,4-triazol-3-yl]-3H-imidazo[4,5-c]pyridin-2-yl)methyl]piperazin-1-yl]phenoxy}methyl)benzonitrile] was run?
A: 0.076 nM

Q: With `CCc1ccc(C(=O)Nc2ccc3c(c2)nc(CN2CCC(c4cccc(OCc5ccc(Cl)cc5F)n4)CC2)n3C[C@@H]2CCO2)cn1` [Compound 174a, N-{2-[(4-{6-[(4-chloro-2-fluorophenyl)methoxy]pyridin-2-yl}piperidin-1-yl)methyl]-1-{[(2S)-oxetan-2-yl]methyl}-1H-1,3-benzodiazol-5-yl}-6-ethylpyridine-3-carboxamide] as the compound, how does the EC50 read?
A: 0.56 nM

Q: `CC1(c2ccc(Cl)cc2F)Oc2cccc(C3CCN(Cc4nc5cc(-c6cn(CCS(C)(=O)=O)nn6)ccc5n4C[C@@H]4CCO4)CC3)c2O1` (stereo partly drawn) [Compound 250a, 2-({4-[2-(4-chloro-2-fluorophenyl)-2-methyl-2H-1,3-benzodioxol-4-yl]piperidin-1-yl}methyl)-5-[1-(2-methanesulfonylethyl)-1H-1,2,3-triazol-4-yl]-1-{[(2S)-oxetan-2-yl]methyl}-1H-1,3-benzodiazole] was tested. Which EC50 did it give?
A: 0.11 nM

Q: How did the EC50 turn out when `CC1(c2ccc(Cl)cc2F)Oc2cccc(C3CCN(Cc4nc5cc(-c6n[nH]c(=O)o6)ccc5n4C[C@@H]4CCO4)CC3)c2O1` (stereo partly drawn) [Compound 219a, 5-[2-({4-[2-(4-chloro-2-fluorophenyl)-2-methyl-2H-1,3-benzodioxol-4-yl]piperidin-1-yl}methyl)-1-{[(2S)-oxetan-2-yl]methyl}-1H-1,3-benzodiazol-5-yl]-2,3-dihydro-1,3,4-oxadiazol-2-one] was run?
A: 1.6 nM

Q: For `O=c1[nH]c(-c2cnc3c(c2)nc(CN2CCC(c4cccc5c4OC[C@@H](c4ccc(Cl)cc4)O5)CC2)n3C[C@@H]2CCO2)no1` [Compound 407a, 3-[2-({4-[(2R)-2-(4-chlorophenyl)-2,3-dihydro-1,4-benzodioxin-5-yl]piperidin-1-yl}methyl)-3-{[(2S)-oxetan-2-yl]methyl}-3H-imidazo[4,5-b]pyridin-6-yl]-4,5-dihydro-1,2,4-oxadiazol-5-one], which EC50 is on record?
A: 4.5 nM

Q: For `CC1(c2ccc(Cl)cc2F)Oc2cccc(C3CCN(Cc4nc5cc(-c6nnc(C(F)(F)F)[nH]6)ccc5n4C[C@@H]4CCO4)CC3)c2O1` (single isomer, unassigned) [Compound 229b], which EC50 is on record?
A: 8.9 nM

Q: How did the EC50 turn out when `O=C1CCCN1c1ccc2c(c1)nc(CN1CCC(c3cccc(OCc4ccc(Cl)cc4F)n3)CC1)n2C[C@@H]1CCO1` [Compound 119a, 1-{2-[(4-{6-[(4-chloro-2-fluorophenyl)methoxy]pyridin-2-yl}piperidin-1-yl)methyl]-1-{[(2S)-oxetan-2-yl]methyl}-1H-1,3-benzodiazol-5-yl}pyrrolidin-2-one] was run?
A: 7.2 nM

Q: With `N#Cc1ccc(COc2ccc(F)c(N3CCN(Cc4nc5cc(-c6nnc(C(F)(F)F)[nH]6)nnc5n4C[C@@H]4CCO4)CC3)n2)c(F)c1` [Compound 503a, 3-fluoro-4-{[(5-fluoro-6-{4-[(7-{[(2S)-oxetan-2-yl]methyl}-3-[5-(trifluoromethyl)-4H-1,2,4-triazol-3-yl]-7H-imidazo[4,5-c]pyridazin-6-yl)methyl]piperazin-1-yl}pyridin-2-yl)oxy]methyl}benzonitrile] as the compound, how does the EC50 read?
A: 0.078 nM

Q: `C[C@]1(c2ccc(Cl)cc2F)Oc2cccc(C3CCN(Cc4nc5cc(C(N)=O)nnc5n4C[C@@H]4CCO4)CC3)c2O1` [Compound 432a, 6-({4-[(2S)-2-(4-chloro-2-fluorophenyl)-2-methyl-2H-1,3-benzodioxol-4-yl]piperidin-1-yl}methyl)-7-{[(2S)-oxetan-2-yl]methyl}-7H-imidazo[4,5-c]pyridazine-3-carboxamide] was tested. Which EC50 did it give?
A: 6.9 nM

Q: `CC1(c2ccc(C#N)cc2F)Oc2cccc(C3CCN(Cc4nc5cc(-c6nnc(C(F)(F)F)[nH]6)nnc5n4C[C@@H]4CCO4)CC3)c2O1` (stereo partly drawn) [Compound 273a, 3-fluoro-4-(2-methyl-4-{1-[(7-{[(2S)-oxetan-2-yl]methyl}-3-[5-(trifluoromethyl)-4H-1,2,4-triazol-3-yl]-7H-imidazo[4,5-c]pyridazin-6-yl)methyl]piperidin-4-yl}-2H-1,3-benzodioxol-2-yl)benzonitrile] was tested. Which EC50 did it give?
A: 0.019 nM

Q: For `C[C@]1(c2ccc(Cl)cn2)Oc2cccc(C3CCN(Cc4nc5cc(-c6noc(=O)[nH]6)nnc5n4C[C@@H]4CCO4)CC3)c2O1` [Compound 463a, 3-[6-({4-[(2S)-2-(5-chloropyridin-2-yl)-2-methyl-2H-1,3-benzodioxol-4-yl]piperidin-1-yl}methyl)-7-{[(2S)-oxetan-2-yl]methyl}-7H-imidazo[4,5-c]pyridazin-3-yl]-4,5-dihydro-1,2,4-oxadiazol-5-one], which EC50 is on record?
A: 0.35 nM
